# Data: patent publication US11358962B2, “2-hetaryl imidazol[1,2-a]pyridine derivatives” (Hoffmann-La Roche Inc., priority 2013, dated 2022)
# Tested on: native tau aggregates
# Assay: TAU radioligand in vitro displacement assay ([3H]T808, autoradiography on human AD brain sections)
# Assay type: binding
# Conditions: compound 10 nM, radioligand [3H]T808 10 nM
# Excerpt: TAU Radioligand-In-Vitro Displacement Assay
# This in vitro binding assay assesses the affinity of compounds for native tau aggregates.
# AD human brains are purchased from Banner Sun Health Research Institute (Sun City, Ariz., USA). Pathological diagnosis of AD is made according to standard NIA-Reagan Institute criteria based on neuropathological data. The radioligand [^3H]T808 was synthesized in-house ([^3H]-2-[4-(2-Fluoro-ethyl)-piperidin-1-yl]-benzo[4,5]imidazo[1,2-a]pyrimidine, radiochemical purity 99.0%). As a reference cold T808 is used (2-[4-(2-Fluoro-ethyl)-piperidin-1-yl]-benzo[4,5]imidazo[1,2-a]pyrimidine). For the autoradiography FujiFilm Imaging Plates (BAS-IP TR 2025) are exposed to the sections and read with a FujiFilm IP reader (BAS-5000).
# Ten μm thick human AD brain sections are generated with a cryostat (Leica CM3050) at −17° C. chamber temperature and −15° C. object temperature. Sections are transferred to Histobond+ microscope slides (Marienfeld Laboratory Glasware). After drying for 3 hours at room temperature the sections are stored at −20° C. The sections are incubated with the radioligand (10 nM) and the respective cold compound (at various concentrations) in 50 mM Tris buffer, pH 7.4 at room temperature for 30 min. After washing 3× 10 min at 4° C. in 50 mM Tris buffer, pH 7.4 and 3 quick dips in H2O dist. at 4° C. the sections are dried at 4° C. for 3 h. The sections are placed in a FujiFilm Cassette (BAS 2025), exposed with an Imaging Plate for five days and afterwards scanned with a resolution of […].
# The signal intensity (Dens−PSL/mm2) in the region of interest (ROI) of the autoradiogram is quantified with the software MCID analysis (version 7.0, Imaging Research Inc.). The specific binding (SB) of [^3H]T808 binding in absence or in presence of a compound is calculated by subtracting the non-specific binding signal in the white matter, thus yielding SB[3H]T808 only and SBcompound. The % displacement by the various compounds is calculated as following: % displacement=100−(SBcompound/SB[3H]T808 only)*100. Validation Data
# In each experiment cold T808 is used as a positive internal control. Co-incubation of equimolar amounts of hot and cold T808 is expected to reduce specific binding by approximately 50%.
row,% displacement of [3H]T808 (10 nM) at 10 nM,Compound
1,23%,"CNc1ccn2cc(-c3cccc(CO)c3)nc2c1 [Example 123, [3-[7-(Methylamino)imidazo[1,2-a]pyridin-2-yl]phenyl]methanol]"
2,43%,"CNc1ccn2cc(-c3ccc(NCCF)cc3)nc2c1 [Example 131, 2-(4-(2-fluoroethylamino)phenyl)-N-methylimidazo[1,2-a]pyridin-7-amine]"
3,27%,"COc1cccc(-c2cn3ccc(N4CCOCC4)cc3n2)c1 [Example 10, 2-(3-Methoxy-phenyl)-7-morpholin-4-yl-imidazo[1,2-a]pyridine]"
4,8%,"COc1ccc(-c2cn3ccc(N4CC[C@H](F)C4)cc3n2)cc1 [6 (S), (S)-7-(3-Fluoropyrrolidin-1-yl)-2-(4-methoxyphenyl)imidazo[1,2-a]pyridine]"
5,23%,"FCCNc1ccn2cc(-c3ccc(N4CCOCC4)cc3)nc2c1 [Example 147, N-(2-Fluoroethyl)-2-(4-morpholin-4-ylphenyl)imidazo[1,2-a]pyridin-7-amine]"
6,35%,"CNc1ccn2cc(-c3ccc4c(c3)OCCCO4)nc2c1 [Example 96, N-[2-(3,4-Dihydro-2H-benzo[b][1,4]dioxepin-7-yl)-imidazo[1,2-a]pyridin-7-yl]-methyl-amine]"
7,50%,"CNc1ccn2cc(-c3cccs3)nc2c1 [Example 102, N-(2-Thiophen-2-yl-imidazo[1,2-a]pyridin-7-yl)-methyl-amine]"
8,60%,"CNc1ccn2cc(-c3ccc4c(c3)OCO4)nc2c1 [Example 37, (2-Benzo[1,3]dioxol-5-yl-imidazo[1,2-a]pyridin-7-yl)-methyl-amine]"
9,18%,"CN(C)c1ccc(-c2cn3ccc(N4CCC(F)CC4)cc3n2)cc1 [Example 41, {4-[7-(4-Fluoro-piperidin-1-yl)-imidazo[1,2-a]pyridin-2-yl]-phenyl}-dimethyl-amine]"
10,22%,"Cc1cccc(-c2cn3ccc(N4CCC(F)CC4)cc3n2)c1 [Example 69, 7-(4-Fluoro-piperidin-1-yl)-2-m-tolyl-imidazo[1,2-a]pyridine]"
11,21%,"COc1ccc(-c2cn3ccc(NC(C)CO)cc3n2)cc1 (stereo not shown) [Example 134, 2-(2-(4-methoxyphenyl)imidazo[1,2-a]pyridin-7-ylamino)propan-1-ol]"
12,59%,"CNc1ccn2cc(-c3ccsc3)nc2c1 [Example 100, Methyl-(2-thiophen-3-yl-imidazo[1,2-a]pyridin-7-yl)-amine]"
13,38%,"CCc1ccc(-c2cn3ccc(NC)cc3n2)cc1 [Example 98, N-[2-(4-Ethyl-phenyl)-imidazo[1,2-a]pyridin-7-yl]-methyl-amine]"
14,27%,"Cc1cccc(-c2cn3ccc(N4CCC4)cc3n2)c1 [Example 55, 7-Azetidin-1-yl-2-m-tolyl-imidazo[1,2-a]pyridine]"
15,31%,"COc1cccc(-c2cn3ccc(NCCF)cc3n2)c1 [Example 76, (2-Fluoro-ethyl)-[2-(3-methoxy-phenyl)-imidazo[1,2-a]pyridin-7-yl]-amine]"
16,25%,"COc1cccc(-c2cn3ccc(N4CCCCC4)cc3n2)c1 [Example 8, 2-(3-Methoxy-phenyl)-7-piperidin-1-yl-imidazo[1,2-a]pyridine]"
17,39%,"CN(C)c1ccn2cc(-c3ccc4c(c3)OCCO4)nc2c1 [Example 22, [2-(2,3-Dihydro-benzo[1,4]dioxin-6-yl)-imidazo[1,2-a]pyridin-7-yl]-dimethyl-amine]"
18,35%,"COc1ccc(-c2cn3ccc(N(C)C)cc3n2)cc1 [Example 20, [2-(4-Methoxy-phenyl)-imidazo[1,2-a]pyridin-7-yl]-dimethyl-amine]"
19,20%,"CNc1ccn2cc(-c3ccc(N4CCCCC4)cc3)nc2c1 [Example 118, Methyl-[2-(4-piperidin-1-yl-phenyl)-imidazo[1,2-a]pyridin-7-yl]-amine]"

row,% displacement of [3H]T808 (10 nM) at 10 nM,Compound
1,40%,"CNc1ccn2cc(-c3cccc(OCF)c3)nc2c1 [Example 133, 2-(3-(fluoromethoxy)phenyl)-N-methylimidazo[1,2-a]pyridin-7-amine]"
2,50%,"CN(CCF)c1ccn2cc(-c3ccccc3)nc2c1 [Example 2, N-(2-Fluoroethyl)-N-methyl-2-phenylimidazo[1,2-a]pyridin-7-amine]"
3,5%,"CNc1ccn2cc(-c3cccc(OCCCF)c3)nc2c1 [Example 139, 2-(3-(3-fluoropropoxy)phenyl)-N-methylimidazo[1,2-a]pyridin-7-amine]"
4,36%,"FCCOc1ccc(-c2cn3ccc(N4CCC4)cc3n2)cc1 [Example 106, 7-(Azetidin-1-yl)-2-[4-(2-fluoroethoxy)phenyl]imidazo[1,2-a]pyridine]"
5,35%,"CNc1ccn2cc(-c3ccc(N4CCC(F)CC4)cc3)nc2c1 [Example 141, 2-(4-(4-fluoropiperidin-1-yl)phenyl)-N-methylimidazo[1,2-a]pyridin-7-amine]"
6,23%,"CN(C)c1ccc(-c2cn3ccc(N(C)CCF)cc3n2)cc1 [Example 30, 2-(4-(Dimethylamino)phenyl)-N-(2-fluoroethyl)-N-methylimidazo[1,2-a]pyridin-7-amine]"
7,39%,"COc1cccc(-c2cn3ccc(N4CCC4)cc3n2)c1 [Example 91, 7-(azetidin-1-yl)-2-(3-methoxyphenyl)imidazo[1,2-a]pyridine]"
8,29%,"Oc1ccc(-c2cn3ccc(NCCF)cc3n2)cc1 [Example 145, 4-(7-(2-fluoroethylamino)imidazo[1,2-a]pyridin-2-yl)phenol]"
9,11%,"COc1cc(-c2cn3ccc(NCCF)cc3n2)ccc1O [Example 142, 4-(7-(2-fluoroethylamino)imidazo[1,2-a]pyridin-2-yl)-2-methoxyphenol]"
10,27%,"Cc1cccc(-c2cn3ccc(N4CCOCC4)cc3n2)c1 [Example 35, 7-Morpholin-4-yl-2-m-tolyl-imidazo[1,2-a]pyridine]"
11,26%,"FC1CCN(c2ccn3cc(-c4ccc5c(c4)OCCO5)nc3c2)CC1 [Example 84, 2-(2,3-Dihydro-benzo[1, 4]dioxin-6-yl)-7-(4-fluoro-piperidin-1-yl)-imidazo[1,2-a]pyridine]"
12,27%,"Cc1ccc(-c2cn3ccc(N(C)C)cc3n2)cc1C [Example 52, [2-(3,4-Dimethyl-phenyl)-imidazo[1,2-a]pyridin-7-yl]-dimethyl-amine]"
13,41%,"CNc1ccn2cc(-c3cccc(OCCF)c3)nc2c1 [Example 137, 2-(3-(2-fluoroethoxy)phenyl)-N-methylimidazo[1,2-a]pyridin-7-amine]"
14,26%,"CNc1ccn2cc(-c3ccc(C)c(OC)c3)nc2c1 [Example 108, 2-(3-methoxy-4-methylphenyl)-N-methylimidazo[1,2-a]pyridin-7-amine]"
15,29%,"CNc1ccn2cc(-c3cccc(OC)c3)nc2c1 [Example 44, [2-(3-Methoxy-phenyl)-imidazo[1,2-a]pyridin-7-yl]-methyl-amine]"
16,19%,"CNc1ccn2cc(-c3nc4ccccc4n3C)nc2c1 [Example 121, Methyl-[2-(1-methyl-1H-benzoimidazol-2-yl)-imidazo[1,2-a]pyridin-7-yl]-amine]"
17,32%,"CC(=O)O.COc1cccc(-c2cn3ccc(N(C)CCF)cc3n2)c1 [Example 83, N-(2-fluoroethyl)-2-(3-methoxyphenyl)-N-methylimidazo[1,2-a]pyridin-7-amine, acetic acid adduct]"
18,41%,"Cc1cccc(-c2cn3ccc(N(C)CCF)cc3n2)c1 [Example 34, (2-Fluoro-ethyl)-methyl-(2-m-tolyl-imidazo[1,2-a]pyridin-7-yl)-amine]"
19,40%,"COc1ccc(-c2cn3ccc(N4CCOCC4)cc3n2)cc1 [Example 13, 2-(4-Methoxy-phenyl)-7-morpholin-4-yl-imidazo[1,2-a]pyridine]"

row,Compound,% displacement of [3H]T808 (10 nM) at 10 nM
1,"2-Benzo[1,3]dioxol-5-yl-7-[4-(2-fluoro-ethyl)-piperidin-1-yl]-imidazo[1,2-a]pyridine [Example 21]",7%

# Same assay, conditions: compound 1 uM, radioligand [3H]T808 10 nM
row,% displacement of [3H]T808 (10 nM) at 1 uM,Compound
1,90%,"CN(CCF)c1ccn2cc(-c3ccccc3)nc2c1 [Example 2, N-(2-Fluoroethyl)-N-methyl-2-phenylimidazo[1,2-a]pyridin-7-amine]"
